Results on 27 compounds are retold here after ChEMBL document CHEMBL1777753, “Discovery of indeno[1,2-c]quinoline derivatives as inhibitors of osteoclastogenesis induced by receptor activator of NF-κB ligand (RANKL)” (J Med Chem, 2011).

Series [1] relates to RAW264.7. As to the kind of experiment: Inhibition of RANKL-induced osteoclastogenesis in mouse RAW264.7 cells assessed as decrease in TRAP-positive multi-nucleated cells after 5 days. In kind it is functional, cell-based. The following applies: RAW264.7, 120 h.
Series [2] can be described thus: Cytotoxicity against mouse RAW264.7 cells assessed as cell survival rate at 10 uM by MTT assay. The class given is cell-based. The following applies: read-out: Survival. In general terms: Tetrazolium dyes change colour on reduction, which living cells bring about.
The test system of series [3] is RAW264.7. Nature of the series: Inhibition of RANKL-induced osteoclastogenesis in mouse RAW264.7 cells assessed as decrease in TRAP-positive multi-nucleated cells at 10 uM after 5 days. In kind it is functional.
In series [4] the test system is RAW264.7. Nature of the series: Ratio of EGCG IC50 for compound IC50 for inhibition of RANKL-induced osteoclastogenesis in mouse RAW264.7 cells. The class given is functional.
The next series deals with A549. Nature of the series: Growth inhibition against human A549 cells. The class given is functional.
The nature of series [5]: Growth inhibition against human BT-483 cells. In kind it is functional.
The next series deals with SAS. Nature of the series: Growth inhibition against human SAS cells. In kind it is functional.
In series [6] the test system is RAW264.7. Nature of the series: Inhibition of RANKL-induced osteoclastogenesis in mouse RAW264.7 cells. In kind it is functional, cell-based.

Molecules are shown by their SMILES. Calls of active or inactive are those of the source. No cut-off for these calls is given here.

As for `O=C1c2cc(O)ccc2-c2c(O)nc3ccccc3c21`, the IC50 with RAW264.7 [1] stood at 15.3 µM. In series [2], the viability at 10 µM turned out to be 16.8%.

Turning to `CC(C)Oc1ccc2c(=O)c(-c3ccccc3)coc2c1` [IPRIFLAVONE], the inhibition at 10 µM in the series on RAW264.7 [3] (RAW264.7, 120 h) is 31%. Also, the viability at 10 µM in series [2] amounted to 102%.

As to `COc1ccc2c(c1)C(=O)c1c-2cnc2ccccc12`, in the series with RAW264.7 [1], the IC50 amounted to 1.43 µM. Also, in the series on RAW264.7 [4], the “Ratio IC50” value is on record as 20. In series [2], the viability at 10 µM stood at 25.3%.

Regarding `COc1ccc2c(c1)C(=O)c1c-2c(SC)nc2ccccc12`, in the series with RAW264.7 [1], the IC50 turned out to be 2.58 µM. In addition, the inhibition entry in the series on RAW264.7 [3] was “Active”. In series [2], the viability at 10 µM amounted to 86.6%.

Regarding `COc1ccc2c(c1)C(=O)c1c-2c(O)nc2ccccc12`, the IC50 in the series on RAW264.7 [1] is more than 20 µM.

Consider `COc1ccc2c(c1)/C(=N\OCCN1CCCC1)c1c-2c(O)nc2ccccc12`, for which the GI50 worked out at 0.89 µM in the series on A549, 0.79 µM in series [5] and 0.84 µM with SAS.

For `CO/N=C1\c2cc(OC)ccc2-c2cnc3ccccc3c21`, in the series with RAW264.7 [1], the IC50 amounted to 4.79 µM. The viability at 10 µM in series [2] was 55.4%.

As to `CCOc1nc2ccccc2c2c1-c1ccc(OC)cc1C2=O`, the IC50 with RAW264.7 [1] was more than 20 µM.

Turning to `COc1ccc2c(c1)C(=O)c1c-2c(OC)nc2ccccc12`, the IC50 with RAW264.7 [1] came out at 2 µM. The “Ratio IC50” value in the series with RAW264.7 [4] was determined as 15. In addition, the inhibition entry in the series with RAW264.7 [3] is “Active”. Besides, the viability at 10 µM in series [2] was 100%.

For the compound `CO/N=C1\c2cc(OC)ccc2-c2c(NOC)nc3ccccc3c21`, in the series with RAW264.7 [1], the IC50 amounted to 1.58 µM. Also, in the series with RAW264.7 [3], the inhibition result was “Active”. Also, in series [2], the viability at 10 µM was 105%.

With `C=CCn1c(=O)c2c(c3ccccc31)C(=O)c1cc(OC)ccc1-2`, the IC50 in the series on RAW264.7 [1] was more than 20 µM.

For `COc1ccc2c(c1)/C(=N\O)c1c-2cnc2ccccc12`, the IC50 in the series on RAW264.7 [1] is more than 20 µM.

Take `COc1ccc2c(c1)C(=O)c1c-2c(S)nc2ccccc12`: the IC50 in the series with RAW264.7 [1] was found to be 13.8 µM. The viability at 10 µM in series [2] was found to be 63%.

In the case of `COc1ccc2c(c1)/C(=N\O)c1c-2c(O)nc2ccccc12`, the IC50 in the series with RAW264.7 [1] stood at 9.11 µM. Besides, in series [2], the viability at 10 µM was determined as 85.2%.

For the compound `C=CCOc1ccc2c(c1)C(=O)c1c-2c(OCC=C)nc2ccccc12`, in the series on RAW264.7 [1], the IC50 was 5.7 µM. For the same compound, the inhibition entry with RAW264.7 [3] was “Active”. In addition, in series [2], the viability at 10 µM amounted to 75.1%.

For the compound `O=C(O[C@@H]1Cc2c(O)cc(O)cc2O[C@@H]1c1cc(O)c(O)c(O)c1)c1cc(O)c(O)c(O)c1` [EPIGALOCATECHIN GALLATE], the IC50 in the series with RAW264.7 [1] was 29.8 µM.

Regarding `CNc1nc2ccccc2c2c1-c1ccc(OC)cc1C2=O`, the IC50 in the series with RAW264.7 [1] worked out at 5.58 µM. Also, in series [2], the viability at 10 µM was determined as 25.9%.

Take `C=CCOc1nc2ccccc2c2c1-c1ccc(OC)cc1C2=O`: in the series on RAW264.7 [1], the IC50 is 15.4 µM. The viability at 10 µM in series [2] amounted to 105%.

As for `COc1ccc2c(c1)C(=O)c1c-2c(=O)n(C)c2ccccc12`, the IC50 in the series with RAW264.7 [1] was determined as 11.5 µM. Further, the viability at 10 µM in series [2] was 66.6%.

With `C#CCOc1ccc2c(c1)C(=O)c1c-2c(OCC#C)nc2ccccc12`, the IC50 with RAW264.7 [1] stood at 9.46 µM. Besides, the viability at 10 µM in series [2] is 30.9%.

For the compound `C#CCOc1ccc2c(c1)C(=O)c1c-2c(=O)n(CC#C)c2ccccc12`, the IC50 with RAW264.7 [1] was more than 20 µM.

For `COc1ccc2c(c1)C(=O)c1c-2c(N)nc2ccccc12`, the IC50 in the series on RAW264.7 [1] was more than 20 µM.

As for `COc1ccc2c(c1)/C(=N\O)c1c-2c(OC)nc2ccccc12`, in the series on RAW264.7 [1], the IC50 turned out to be 8.44 µM. Also, in series [2], the viability at 10 µM is 46.9%.

Regarding `CO/N=C1\c2cc(OC)ccc2-c2c(OC)nc3ccccc3c21`, in the series with RAW264.7 [1], the 50% inhibitory concentration (IC50) stood at 7.97 µM. The viability at 10 µM in series [2] amounted to 62.3%.

As to `C=CCOc1ccc2c(c1)C(=O)c1c-2c(=O)n(CC=C)c2ccccc12`, the IC50 in the series on RAW264.7 [1] is more than 20 µM.

Take `Cc1ccc(-n2c(=O)n3n(c2=O)C2C(=CC3)C(C)(C)Oc3cc(O)ccc32)cc1` (configuration not stated): half-maximal inhibition with RAW264.7 [6] (IC50) required 6.97 µM.

On to `C=CCSc1nc2ccccc2c2c1-c1ccc(OC)cc1C2=O`, for which, in the series with RAW264.7 [1], the IC50 came out at 15.6 µM. The viability at 10 µM in series [2] turned out to be 106%.

Usually IC50 stands for the concentration that gives 50% inhibition. Broadly, the inhibition is the change of the read-out against control, counted positive when it falls. Broadly, the GI50 is the concentration at which growth is held to half of that of the control. Read a high GI50 as lower sensitivity of the cells.
